16 molecules from PubChem BioAssay (NCI) can be followed below.

A word on the TGI: it is the concentration giving total growth inhibition. Low values mean more potent growth arrest, high ones less potent growth arrest. The term GI50 denotes the concentration at which growth is held to half of that of the control.

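Protocol summary: plate cells (96-well), add compound at 5 concentrations, incubate 48 h, interpolate endpoints linearly. Here, GI50 denotes the concentration required for 50% inhibition of growth. TGI denotes the concentration required for complete inhibition of growth.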

Among the test systems are OVCAR-5 ovarian; SF-295 CNS; NCI-H522 lung; NCI-H226 lung; IGROV1 ovarian; SW-620 colon; 786-0 renal; MDA-MB-231 breast; T-47D breast; HS 578T breast.
Assay in all cases: DTP human tumour cell line panel, 48 h

On to `CCCCCCc1cn([C@H]2C[C@H](O)[C@@H](CO)O2)c(=O)[nH]c1=O`, for which the concentration for total growth inhibition (TGI) in the assay on OVCAR-5 ovarian was above 100 µM; with SF-295 CNS, above 31.6 µM; with NCI-H522 lung, above 100 µM; in the assay with NCI-H226 lung, above 100 µM; in the assay with IGROV1 ovarian, above 100 µM; with SW-620 colon it was above 100 µM.

As to `CC(C)CC(NC(=O)C(COc1ccc([N+](=O)[O-])cc1)Cc1ccccc1)C(=O)Nc1ccccc1` (centres undefined), the concentration for total growth inhibition (TGI) is above 100 µM with OVCAR-5 ovarian; 26.2 µM in the assay on SF-295 CNS; 55.2 µM in the assay with NCI-H522 lung; 16.1 µM in the assay on NCI-H226 lung; 31.2 µM in the assay on IGROV1 ovarian; 29.5 µM in the assay on 786-0 renal. The total growth inhibition concentration (TGI) in the assay on SW-620 colon is above 100 µM; in the assay on MDA-MB-231 breast it was 80.3 µM.

Turning to `Cc1nn(-c2ccccn2)c2c1C(SC#N)=C(C=O)CC2`, the TGI with OVCAR-5 ovarian was 20.7 µM; with T-47D breast it was 20.3 µM; in the assay on SF-295 CNS, above 100 µM; in the assay on NCI-H522 lung it was 46 µM; in the assay with IGROV1 ovarian it was 23.7 µM; in the assay on 786-0 renal, 25.1 µM. Moreover, the TGI in the assay on HS 578T breast was above 100 µM; in the assay on SW-620 colon it was 59.3 µM; in the assay on MDA-MB-231 breast it was 31.9 µM.

For the molecule `COc1ccc(NS(=O)c2cccc(C)c2)cc1` (centres undefined), the concentration for total growth inhibition (TGI) with OVCAR-5 ovarian, in the assay on SF-295 CNS, with NCI-H522 lung, in the assay on NCI-H226 lung, in the assay with IGROV1 ovarian and in the assay on 786-0 renal was above 100 µM throughout. Besides, the TGI in the assay with HS 578T breast, in the assay with SW-620 colon and with MDA-MB-231 breast was above 100 µM in each case.

For the molecule `c1ccc(CNc2ncnc3n[nH]nc23)cc1`, the TGI in the assay on OVCAR-5 ovarian, with T-47D breast, in the assay on SF-295 CNS, with NCI-H522 lung, in the assay on NCI-H226 lung and with IGROV1 ovarian was above 100 µM in each case. Moreover, the concentration for total growth inhibition (TGI) in the assay with 786-0 renal, in the assay with SW-620 colon and in the assay on MDA-MB-231 breast was above 100 µM each time.

In the case of `O=C(NCc1ccccc1)c1c(O)c2ccccc2[nH]c1=O`, the total growth inhibition concentration (TGI) in the assay with OVCAR-5 ovarian, in the assay with SF-295 CNS, in the assay on NCI-H522 lung, in the assay with NCI-H226 lung, with IGROV1 ovarian and in the assay with 786-0 renal was above 100 µM throughout. For the same molecule, the concentration for total growth inhibition (TGI) with HS 578T breast, in the assay on SW-620 colon and in the assay with MDA-MB-231 breast was above 100 µM throughout.

In the case of `O=C(NC/C=C/Br)NC1CCNc2ccccc21` (centres undefined), the TGI in the assay with OVCAR-5 ovarian was above 100 µM; in the assay on T-47D breast it was 93.9 µM; with SF-295 CNS, above 100 µM; in the assay with NCI-H522 lung, above 100 µM; in the assay on NCI-H226 lung, above 100 µM; in the assay on IGROV1 ovarian, above 100 µM. In addition, the TGI is 81.9 µM with 786-0 renal, above 100 µM in the assay with SW-620 colon and above 100 µM with MDA-MB-231 breast.

As to `O=S(=O)(/N=C1/SC(=Nc2ccccc2)N(c2ccccc2)/C1=N/S(=O)(=O)c1ccccc1)c1ccccc1`, the concentration for total growth inhibition (TGI) in the assay on OVCAR-5 ovarian was 51.6 µM; in the assay on NCI-H226 lung, 45.7 µM; in the assay on IGROV1 ovarian it was 46.7 µM; in the assay with 786-0 renal it was 41.1 µM; in the assay on HS 578T breast it was above 100 µM; with SW-620 colon, 44.2 µM. This molecule had a TGI with MDA-MB-231 breast of 35.6 µM.

Consider `COc1ccccc1N1C(=O)/C(=C\c2cccc(Oc3ccccc3)c2)S(=O)(=O)C1c1ccccc1` (centres undefined), for which the TGI with OVCAR-5 ovarian, in the assay with T-47D breast, with SF-295 CNS, in the assay with NCI-H522 lung, in the assay on NCI-H226 lung and in the assay with 786-0 renal was above 100 µM in each case. The concentration for total growth inhibition (TGI) in the assay with SW-620 colon and with MDA-MB-231 breast was above 100 µM each time.

With `C=C1CC(OC)(C(O)C(=O)N[C@H]2OCO[C@H]3C2O[C@H](C[C@H](O)COC)C(C)(C)C3OC)O[C@H](C)[C@@H]1C` (some centres undefined), the total growth inhibition concentration (TGI) with OVCAR-5 ovarian, in the assay with SF-295 CNS, in the assay on NCI-H522 lung, in the assay with NCI-H226 lung and in the assay on IGROV1 ovarian was above 0.00772 µM throughout.

With `COC(=O)C(C(=O)OC)C1CC(=O)c2c(Br)sc(Br)c21` (centres undefined), the concentration for total growth inhibition (TGI) in the assay on OVCAR-5 ovarian was 28.9 µM; with T-47D breast it was above 100 µM; with SF-295 CNS, 60.9 µM; in the assay on NCI-H226 lung it was 53.4 µM; with IGROV1 ovarian it was 29.3 µM; in the assay with 786-0 renal, above 100 µM. Besides, the results for the concentration for total growth inhibition (TGI) in the assay on HS 578T breast and in the assay on SW-620 colon were 85.7 µM and 26.4 µM, respectively.

For the molecule `O=C(NCCCCNCCCNC(=O)OCc1ccccc1)OCc1ccccc1`, the TGI is above 100 µM in the assay on OVCAR-5 ovarian; 57.8 µM in the assay with T-47D breast; 51.5 µM in the assay on SF-295 CNS; 39.2 µM in the assay on NCI-H522 lung; above 100 µM in the assay on NCI-H226 lung; 73.9 µM with IGROV1 ovarian. The TGI in the assay with 786-0 renal was 55.5 µM; with HS 578T breast, 88.8 µM; in the assay with SW-620 colon, above 100 µM.

Take `Cc1nnc(CC#N)n1NC(=O)CC#N`: the TGI in the assay on OVCAR-5 ovarian, in the assay with T-47D breast, with SF-295 CNS, in the assay with NCI-H522 lung, with IGROV1 ovarian and in the assay on 786-0 renal was above 100 µM each time. The total growth inhibition concentration (TGI) in the assay on HS 578T breast, with SW-620 colon and in the assay with MDA-MB-231 breast was above 100 µM throughout.

On to `c1cc2ccc1CNCCN1CCNCc3ccc(cc3)Oc3ccc(cc3)CNCCN(CCNCc3ccc(cc3)O2)CCNCc2ccc(cc2)Oc2ccc(cc2)CNCC1`, for which the GI50 is 1.63 µM in the assay on T-47D breast, 1.76 µM in the assay with SF-295 CNS, 1.11 µM in the assay with SW-620 colon and 0.521 µM in the assay on MDA-MB-231 breast. In addition, the TGI was determined as 3.61 µM with T-47D breast, 3.18 µM with SF-295 CNS, 2.63 µM in the assay on SW-620 colon and 1.75 µM in the assay on MDA-MB-231 breast.

Turning to `CC1(O)C(=O)OC2CC([C@]3(O)CCC4[C@@H]5C[C@H]6O[C@]67[C@@H](O)C=CC(=O)[C@]7(C)C5CC[C@@]43C)C1(C)C2` (some centres undefined), the total growth inhibition concentration (TGI) in the assay with OVCAR-5 ovarian was 74.1 µM; in the assay on T-47D breast, 18.5 µM; in the assay on SF-295 CNS, above 100 µM; with NCI-H522 lung it was 4.85 µM; in the assay on IGROV1 ovarian, above 31.6 µM; with 786-0 renal, 25.6 µM. The figures for the TGI in the assay with HS 578T breast, in the assay on SW-620 colon and with MDA-MB-231 breast were above 96.7 µM, 11.1 µM and 36 µM, respectively.

For the molecule `CCOC(=O)N1C(=S)C(C(=O)OC)(C(=O)OC)N=C1C`, the TGI with OVCAR-5 ovarian, in the assay on T-47D breast, in the assay on SF-295 CNS, with NCI-H226 lung, in the assay with IGROV1 ovarian and with 786-0 renal was above 100 µM in each case. Besides, the TGI in the assay with SW-620 colon is above 100 µM.
